Measured values published in article PMC3923778 (PLoS Currents, 2014).

What was measured:
PDE10A1 (cAMP) = PDE10A1 (cAMP) (Homo sapiens, UniProt Q9Y233); assay: IMAP PDE activity assay (Scottish Biomedical); format: biochemical; details: * Extrapolated value
Procedure: (§1) Studies were conducted at Scottish Biomedical (Scotland, UK)
(§2) Activity against recombinant PDEs (Table 1) was evaluated using the IMAP technology, which is based on high affinity binding of phosphate by immobilized metal coordination complexes on nanoparticles. The binding reagent complexes with phosphate groups on nucleotide monophosphate generated from cyclic nucleotides (cAMP/cGMP) through PDE activity. With fluorescence polarization detection, binding causes a change in the rate of the molecular motion of the phosphate bearing molecule, and results in an increase in the fluorescence polarization value observed for the fluorescent label attached to the substrate.

PDE11A1 (cAMP) = PDE11A1 (cAMP) (Homo sapiens, UniProt Q9HCR9); assay: IMAP PDE activity assay (Scottish Biomedical); format: biochemical; details: * Extrapolated value
Procedure: as §1, §2

PDE1A3 (cAMP) = target: T1, PDE1A3 (cAMP) (Homo sapiens, UniProt P54750); assay: IMAP PDE activity assay (Scottish Biomedical); format: biochemical; details: recombinant PDE1A3 (cAMP)
T1 construct: Scottish Biomedical (contract laboratory)
Procedure: as §1, §2

PDE2A3 = target: T2, PDE2A3 (Homo sapiens, UniProt O00408); assay: IMAP PDE activity assay (Scottish Biomedical); format: biochemical; details: recombinant PDE2A3
T2 construct: Scottish Biomedical (contract laboratory)
Procedure: as §1, §2

PDE3 Cat = assay: IMAP PDE activity assay (Scottish Biomedical); format: biochemical; details: * Extrapolated value
Procedure: as §1, §2

PDE4 Cat = assay: IMAP PDE activity assay (Scottish Biomedical); format: biochemical
Procedure: as §1, §2

PDE6AB = target: T3, PDE6AB (Homo sapiens, UniProt P16499+P35913); assay: IMAP PDE activity assay (Scottish Biomedical); format: biochemical; details: NI, no inhibition noted at concentrations tested (up to 10 µM at Cerep and up to 100 µM at Scottish Biomedical)
T3 construct: Scottish Biomedical (contract laboratory)
Procedure: as §1, §2

PDE7A1 = target: T4, PDE7A1 (Homo sapiens, UniProt Q13946); assay: IMAP PDE activity assay (Scottish Biomedical); format: biochemical
T4 construct: Scottish Biomedical (contract laboratory)
Procedure: as §1, §2

PDE8A1 = target: T5, PDE8A1 (Homo sapiens, UniProt O60658); assay: IMAP PDE activity assay (Scottish Biomedical); format: biochemical; details: NI, no inhibition noted at concentrations tested (up to 10 µM at Cerep and up to 100 µM at Scottish Biomedical)
T5 construct: Scottish Biomedical (contract laboratory)
Procedure: as §1, §2

PDE9A2 = PDE9A2 (Homo sapiens, UniProt O76083); assay: IMAP PDE activity assay (Scottish Biomedical); format: biochemical; details: * Extrapolated value
Procedure: as §1, §2

R6/2 mice [1] = assay: Acute and subchronic (2 weeks) tolerability evaluation in R6/2 mice; format: in vivo; details: R6/2 mice starting at 6 weeks of age, all doses administered
Source text: Prior to chronic dosing, we conducted an acute and subchronic (2 weeks) tolerability evaluation in R6/2 mice starting at 6 weeks of age (studies conducted at Psychogenics, USA; see Supplementary Report 1 for full details).

[2] = Body weight during chronic dosing in R6/2 mice; format: in vivo, mouse; details: BID, ANOVA
Procedure: Body weight was measured starting at the age of 4 weeks and a further two times per week on the same day until the end of the study. This was done just prior to animals receiving doses for those days.
(§3) All values are presented as mean ± Standard Error of Mean (SEM), and differences are considered to be statistically significant at the p < 0.05 level. Statistical analysis was performed using StatsDirect statistical software. Differences between group means were analyzed by 1-way-ANOVA followed by Dunnett’s test (comparison to the control (=vehicle treated TG mice) group). The acquisition of the Cued two-choice swim test was analyzed using Fisher’s exact test.

R6/2 mice [3] = assay: T2-MRI brain volumetry; format: in vivo, mouse; details: chronic administration, 13 weeks
Procedure: MRI analysis was performed for all mice at the age of 13 weeks in a horizontal 7T magnet with bore size 160 mm (Magnex Scientific Ltd., Oxford, UK) equipped with Magnex gradient set (max. gradient strength 400 mT/m, bore 100 mm) interfaced to a Varian DirectDrive console (Varian, Inc., Palo Alto, CA) using a volume coil for transmission and surface phased array coil for receiving (Rapid Biomedical GmbH, Rimpar, Germany). Isoflurane -anesthetized mice were fixed to a head holder and positioned in the magnet bore in a standard orientation relative to gradient coils. Rectal temperature (TC-1000 Temperature Controller, CWE Inc., Ardmore, PA, USA) and respiration (ECG Trigger Unit, Rapid Biomedical GmbH) were monitored throughout the study and the body temperature was kept at 36-37°C. […]
as §3, with “Statistical analysis was performed using StatsDirect statistical software.” left out

R6/2 mice [4] = assay: Survival study in R6/2 mice; format: in vivo, mouse; details: for Mean (±SEM) Survival Time / Medial Survival Time: R6/2 mice

Chain of PDE11A1 (cAMP) (Q9HCR9 whole entry): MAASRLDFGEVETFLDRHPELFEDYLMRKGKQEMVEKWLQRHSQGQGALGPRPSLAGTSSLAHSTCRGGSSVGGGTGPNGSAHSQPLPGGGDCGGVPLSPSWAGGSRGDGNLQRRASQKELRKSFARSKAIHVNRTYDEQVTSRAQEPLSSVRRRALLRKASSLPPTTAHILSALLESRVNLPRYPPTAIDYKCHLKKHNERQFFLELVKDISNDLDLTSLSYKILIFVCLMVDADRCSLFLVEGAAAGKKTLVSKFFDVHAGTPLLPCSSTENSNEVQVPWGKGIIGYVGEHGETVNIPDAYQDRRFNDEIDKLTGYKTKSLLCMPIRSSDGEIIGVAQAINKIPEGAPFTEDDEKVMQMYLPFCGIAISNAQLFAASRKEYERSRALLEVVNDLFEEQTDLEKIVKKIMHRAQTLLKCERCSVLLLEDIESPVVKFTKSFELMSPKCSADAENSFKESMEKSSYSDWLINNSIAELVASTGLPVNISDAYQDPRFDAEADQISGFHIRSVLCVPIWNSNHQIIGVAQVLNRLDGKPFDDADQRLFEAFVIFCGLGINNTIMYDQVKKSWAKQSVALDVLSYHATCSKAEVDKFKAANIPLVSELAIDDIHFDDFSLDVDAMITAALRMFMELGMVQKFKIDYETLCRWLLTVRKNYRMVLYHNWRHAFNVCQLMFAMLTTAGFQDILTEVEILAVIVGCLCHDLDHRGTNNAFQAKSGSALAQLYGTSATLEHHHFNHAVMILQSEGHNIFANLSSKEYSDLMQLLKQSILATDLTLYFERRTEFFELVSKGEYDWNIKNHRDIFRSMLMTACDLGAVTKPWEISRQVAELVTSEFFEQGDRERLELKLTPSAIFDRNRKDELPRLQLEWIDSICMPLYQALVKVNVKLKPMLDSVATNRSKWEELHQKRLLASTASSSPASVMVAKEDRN
T3 sequence (P16499 whole entry): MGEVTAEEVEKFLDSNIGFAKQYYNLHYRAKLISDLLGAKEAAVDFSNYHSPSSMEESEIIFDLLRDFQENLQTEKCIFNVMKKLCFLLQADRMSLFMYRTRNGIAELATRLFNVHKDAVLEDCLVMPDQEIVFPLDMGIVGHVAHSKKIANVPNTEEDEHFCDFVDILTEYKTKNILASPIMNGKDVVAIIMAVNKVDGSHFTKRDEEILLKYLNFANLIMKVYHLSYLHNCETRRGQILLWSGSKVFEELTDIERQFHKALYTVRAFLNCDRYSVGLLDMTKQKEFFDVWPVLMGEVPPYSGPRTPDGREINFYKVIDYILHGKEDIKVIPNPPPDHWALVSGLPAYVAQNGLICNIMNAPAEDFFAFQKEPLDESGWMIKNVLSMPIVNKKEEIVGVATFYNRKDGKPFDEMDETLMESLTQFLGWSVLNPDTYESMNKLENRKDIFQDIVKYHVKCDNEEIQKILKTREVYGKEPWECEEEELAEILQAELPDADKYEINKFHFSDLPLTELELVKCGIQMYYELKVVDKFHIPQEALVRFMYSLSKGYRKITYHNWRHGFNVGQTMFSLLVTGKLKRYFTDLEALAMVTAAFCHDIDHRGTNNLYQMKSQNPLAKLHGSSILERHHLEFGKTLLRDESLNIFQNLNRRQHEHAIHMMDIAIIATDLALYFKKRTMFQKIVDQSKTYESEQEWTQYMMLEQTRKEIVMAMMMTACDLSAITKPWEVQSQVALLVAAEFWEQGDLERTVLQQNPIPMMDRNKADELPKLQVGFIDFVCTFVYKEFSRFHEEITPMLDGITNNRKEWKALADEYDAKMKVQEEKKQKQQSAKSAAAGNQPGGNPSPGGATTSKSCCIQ
T3 sequence (P35913 whole entry): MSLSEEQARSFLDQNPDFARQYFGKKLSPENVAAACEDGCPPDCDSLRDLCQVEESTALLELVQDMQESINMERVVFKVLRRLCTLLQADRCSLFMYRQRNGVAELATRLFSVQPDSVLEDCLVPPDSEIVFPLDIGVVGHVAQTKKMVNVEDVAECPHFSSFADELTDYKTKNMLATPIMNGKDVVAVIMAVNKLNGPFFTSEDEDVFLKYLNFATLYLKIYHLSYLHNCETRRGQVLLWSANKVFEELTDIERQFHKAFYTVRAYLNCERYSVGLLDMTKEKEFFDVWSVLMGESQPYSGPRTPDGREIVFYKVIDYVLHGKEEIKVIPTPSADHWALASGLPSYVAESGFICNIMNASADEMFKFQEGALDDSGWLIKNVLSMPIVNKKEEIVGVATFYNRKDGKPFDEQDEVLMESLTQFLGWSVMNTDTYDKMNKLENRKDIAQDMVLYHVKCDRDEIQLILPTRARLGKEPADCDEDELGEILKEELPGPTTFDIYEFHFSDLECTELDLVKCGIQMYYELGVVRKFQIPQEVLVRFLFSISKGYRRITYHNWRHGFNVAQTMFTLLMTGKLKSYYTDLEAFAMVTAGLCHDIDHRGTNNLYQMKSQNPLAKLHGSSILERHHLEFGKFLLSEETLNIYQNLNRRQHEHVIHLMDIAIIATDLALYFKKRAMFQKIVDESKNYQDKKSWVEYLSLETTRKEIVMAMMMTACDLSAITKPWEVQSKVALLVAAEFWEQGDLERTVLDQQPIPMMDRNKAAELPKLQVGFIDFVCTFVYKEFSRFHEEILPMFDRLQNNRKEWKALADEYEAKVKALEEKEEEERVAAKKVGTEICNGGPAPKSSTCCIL
T4 sequence (Q13946 whole entry, species assumed): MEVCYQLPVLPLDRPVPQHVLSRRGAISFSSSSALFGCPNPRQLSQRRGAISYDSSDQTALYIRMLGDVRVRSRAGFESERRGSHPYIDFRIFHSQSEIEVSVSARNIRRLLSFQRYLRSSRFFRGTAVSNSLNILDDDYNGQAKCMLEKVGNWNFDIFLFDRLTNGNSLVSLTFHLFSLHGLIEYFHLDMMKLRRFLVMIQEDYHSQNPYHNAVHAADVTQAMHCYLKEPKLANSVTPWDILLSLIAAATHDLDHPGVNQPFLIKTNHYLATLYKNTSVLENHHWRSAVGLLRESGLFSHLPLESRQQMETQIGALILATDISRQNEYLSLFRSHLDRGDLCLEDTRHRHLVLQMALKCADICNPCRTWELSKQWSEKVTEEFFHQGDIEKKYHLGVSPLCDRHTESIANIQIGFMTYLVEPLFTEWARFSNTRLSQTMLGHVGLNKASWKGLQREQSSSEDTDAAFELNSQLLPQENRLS
Chain of PDE10A1 (cAMP) (Q9Y233 267-1055): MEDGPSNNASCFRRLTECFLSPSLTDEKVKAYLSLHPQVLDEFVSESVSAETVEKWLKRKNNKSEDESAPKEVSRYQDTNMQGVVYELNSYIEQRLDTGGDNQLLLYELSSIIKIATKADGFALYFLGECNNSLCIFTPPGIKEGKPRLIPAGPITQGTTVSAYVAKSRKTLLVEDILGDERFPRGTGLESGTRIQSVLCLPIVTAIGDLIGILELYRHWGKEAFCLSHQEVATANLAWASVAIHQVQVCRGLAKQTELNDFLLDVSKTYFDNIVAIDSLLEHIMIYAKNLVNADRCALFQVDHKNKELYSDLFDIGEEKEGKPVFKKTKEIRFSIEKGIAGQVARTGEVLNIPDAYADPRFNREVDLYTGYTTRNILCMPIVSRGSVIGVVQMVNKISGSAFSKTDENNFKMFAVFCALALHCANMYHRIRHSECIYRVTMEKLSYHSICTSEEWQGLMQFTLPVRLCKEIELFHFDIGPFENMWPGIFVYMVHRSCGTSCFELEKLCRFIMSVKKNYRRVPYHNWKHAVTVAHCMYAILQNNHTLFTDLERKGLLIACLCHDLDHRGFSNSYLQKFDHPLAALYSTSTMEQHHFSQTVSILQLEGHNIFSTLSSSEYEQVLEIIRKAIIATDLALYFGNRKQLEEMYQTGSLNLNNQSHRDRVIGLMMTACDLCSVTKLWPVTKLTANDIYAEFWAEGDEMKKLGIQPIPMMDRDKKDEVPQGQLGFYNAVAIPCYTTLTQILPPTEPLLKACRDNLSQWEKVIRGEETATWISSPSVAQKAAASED
T2 sequence (O00408 whole entry, species assumed): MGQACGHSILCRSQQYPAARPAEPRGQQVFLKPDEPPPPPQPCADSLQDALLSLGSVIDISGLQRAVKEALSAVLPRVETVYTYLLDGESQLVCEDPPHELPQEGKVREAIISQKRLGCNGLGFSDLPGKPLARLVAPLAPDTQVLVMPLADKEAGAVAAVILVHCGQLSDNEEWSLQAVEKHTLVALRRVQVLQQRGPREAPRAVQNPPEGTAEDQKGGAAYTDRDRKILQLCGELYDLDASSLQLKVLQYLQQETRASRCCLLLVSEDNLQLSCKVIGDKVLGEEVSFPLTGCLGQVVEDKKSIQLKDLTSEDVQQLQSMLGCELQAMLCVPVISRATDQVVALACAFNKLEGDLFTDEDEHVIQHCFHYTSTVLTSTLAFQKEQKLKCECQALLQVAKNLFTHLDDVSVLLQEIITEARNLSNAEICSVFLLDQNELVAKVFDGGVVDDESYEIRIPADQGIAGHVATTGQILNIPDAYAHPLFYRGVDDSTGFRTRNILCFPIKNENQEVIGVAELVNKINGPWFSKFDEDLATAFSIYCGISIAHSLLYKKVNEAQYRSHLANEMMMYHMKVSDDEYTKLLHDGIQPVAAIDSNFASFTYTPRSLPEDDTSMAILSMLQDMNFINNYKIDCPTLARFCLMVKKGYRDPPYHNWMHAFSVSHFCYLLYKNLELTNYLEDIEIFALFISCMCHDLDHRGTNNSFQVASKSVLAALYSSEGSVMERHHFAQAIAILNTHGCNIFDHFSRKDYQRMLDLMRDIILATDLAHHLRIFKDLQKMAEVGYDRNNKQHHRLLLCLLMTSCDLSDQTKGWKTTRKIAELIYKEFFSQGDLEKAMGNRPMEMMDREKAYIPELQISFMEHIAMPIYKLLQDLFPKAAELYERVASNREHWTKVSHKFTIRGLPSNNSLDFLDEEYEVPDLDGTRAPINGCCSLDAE

SMILES: CN1C(=O)c2nc(Cc3ccc(C(F)(F)F)cc3)[nH]c2N2C1=N[C@H]1CCC[C@H]12 [SCH-51866, (+)-cis-5,6a,7,8,9,9a-hexahydro-2-[4-[trifluro-methyl]phenylmethyl]-5-methyl-cylopent[4,5]imidazo [2,1-b]purin-4(3H)one]
- IC50 (PDE10A1 (cAMP)): 16 µM
- IC50 (PDE11A1 (cAMP)): 21.9 µM
- IC50 (PDE1A3 (cAMP)): 0.07 µM
- IC50 (PDE2A3): 1.32 µM
- IC50 (PDE3 Cat): 17.3 µM
- IC50 (PDE4 Cat): > 100 µM
- IC50 (PDE6AB): > 100 µM
- IC50 (PDE7A1): > 100 µM
- IC50 (PDE8A1): > 100 µM
- IC50 (PDE9A2): 51.3 µM
- tolerability (R6/2 mice [1]): well tolerated with no sign of adverse effects
- Body Weight: p vs Vehicle-treated R6/2 mice ([2]; Age Week 4, 10 mg/kg p.o.): ANOVA: p=0.878
- Body Weight: p vs Vehicle-treated R6/2 mice ([2]; Age Week 4, 30 mg/kg p.o.): ANOVA: p=0.878
- Body Weight: p vs Vehicle-treated R6/2 mice ([2]; Age Week 5, 10 mg/kg p.o.): ANOVA: p=0.762
- Body Weight: p vs Vehicle-treated R6/2 mice ([2]; Age Week 5, 30 mg/kg p.o.): ANOVA: p=0.762
- Body Weight: p vs Vehicle-treated R6/2 mice ([2]; Age Week 6, 10 mg/kg p.o.): ANOVA: p=0.934
- Body Weight: p vs Vehicle-treated R6/2 mice ([2]; Age Week 6, 30 mg/kg p.o.): ANOVA: p=0.934
- Body Weight: p vs Vehicle-treated R6/2 mice ([2]; Age Week 7, 10 mg/kg p.o.): ANOVA: p=0.766
- Body Weight: p vs Vehicle-treated R6/2 mice ([2]; Age Week 7, 30 mg/kg p.o.): ANOVA: p=0.766
- Body Weight: p vs Vehicle-treated R6/2 mice ([2]; Age Week 8, 10 mg/kg p.o.): ANOVA: p=0.926
- Body Weight: p vs Vehicle-treated R6/2 mice ([2]; Age Week 8, 30 mg/kg p.o.): ANOVA: p=0.926
- Body Weight: p vs Vehicle-treated R6/2 mice ([2]; Age Week 9, 10 mg/kg p.o.): ANOVA: p=0.886
- Body Weight: p vs Vehicle-treated R6/2 mice ([2]; Age Week 9, 30 mg/kg p.o.): ANOVA: p=0.886
- Body Weight: p vs Vehicle-treated R6/2 mice ([2]; Age Week 10, 10 mg/kg p.o.): ANOVA: p=0.969
- Body Weight: p vs Vehicle-treated R6/2 mice ([2]; Age Week 10, 30 mg/kg p.o.): ANOVA: p=0.969
- Body Weight: p vs Vehicle-treated R6/2 mice ([2]; Age Week 11, 10 mg/kg p.o.): ANOVA: p=0.891
- Body Weight: p vs Vehicle-treated R6/2 mice ([2]; Age Week 11, 30 mg/kg p.o.): ANOVA: p=0.891
- Body Weight: p vs Vehicle-treated R6/2 mice ([2]; Age Week 12, 10 mg/kg p.o.): ANOVA: p=0.774
- Body Weight: p vs Vehicle-treated R6/2 mice ([2]; Age Week 12, 30 mg/kg p.o.): ANOVA: p=0.774
- Body Weight: p vs Vehicle-treated R6/2 mice ([2]; Age Week 13, 10 mg/kg p.o.): ANOVA: p=0.855
- Body Weight: p vs Vehicle-treated R6/2 mice ([2]; Age Week 13, 30 mg/kg p.o.): ANOVA: p=0.855
- Body Weight: p vs Vehicle-treated R6/2 mice ([2]; Age Week 14, 10 mg/kg p.o.): ANOVA: p=0.878
- Body Weight: p vs Vehicle-treated R6/2 mice ([2]; Age Week 14, 30 mg/kg p.o.): ANOVA: p=0.878
- Body Weight: p vs Vehicle-treated R6/2 mice ([2]; Age Week 15, 10 mg/kg p.o.): ANOVA: p=0.989
- Body Weight: p vs Vehicle-treated R6/2 mice ([2]; Age Week 15, 30 mg/kg p.o.): ANOVA: p=0.989
- Body Weight: p vs Vehicle-treated R6/2 mice ([2]; Age Week 16, 10 mg/kg p.o.): ANOVA: p=0.651
- Body Weight: p vs Vehicle-treated R6/2 mice ([2]; Age Week 16, 30 mg/kg p.o.): ANOVA: p=0.651
- Body Weight: p vs Vehicle-treated R6/2 mice ([2]; Age Week 17, 10 mg/kg p.o.): ANOVA: p=0.817
- Body Weight: p vs Vehicle-treated R6/2 mice ([2]; Age Week 17, 30 mg/kg p.o.): ANOVA: p=0.817
- Body Weight: p vs Vehicle-treated R6/2 mice ([2]; Age Week 18, 10 mg/kg p.o.): ANOVA: p=0.644
- Body Weight: p vs Vehicle-treated R6/2 mice ([2]; Age Week 18, 30 mg/kg p.o.): ANOVA: p=0.644
- Body Weight: p vs Vehicle-treated R6/2 mice ([2]; Age Week 19, 10 mg/kg p.o.): ANOVA: p=0.975
- Body Weight: p vs Vehicle-treated R6/2 mice ([2]; Age Week 19, 30 mg/kg p.o.): ANOVA: p=0.975
- Body Weight: p vs Vehicle-treated R6/2 mice ([2]; Age Week 20, 10 mg/kg p.o.): ANOVA: p=0.900
- Body Weight: p vs Vehicle-treated R6/2 mice ([2]; Age Week 20, 30 mg/kg p.o.): ANOVA: p=0.900
- Body Weight: p vs Vehicle-treated R6/2 mice ([2]; Age Week 21, 10 mg/kg p.o.): ANOVA: p=0.996
- Body Weight: p vs Vehicle-treated R6/2 mice ([2]; Age Week 21, 30 mg/kg p.o.): ANOVA: p=0.996
- brain volume, cortex (MRI) (R6/2 mice [3]): no improvement in brain volume
- brain volume, striatum (MRI) (R6/2 mice [3]): no improvement in brain volume
- Generalized Wilcoxon (Peto-Prentice) Test, Chi-square for equiv. of death rates p (R6/2 mice [4]; 10 mg/kg (p.o., BID) column): Chi-square for equiv. of death rates p=0.543
- Log-rank (Peto) Test, Chi-square for equiv. of death rates p (R6/2 mice [4]; 10 mg/kg (p.o., BID) column): 0.555
- Mean (±SEM) Survival Time (R6/2 mice [4]; 10 mg/kg (p.o., BID)): 115 (±7) days
- Medial Survival Time (R6/2 mice [4]; 10 mg/kg (p.o., BID)): 110 days
- Generalized Wilcoxon (Peto-Prentice) Test, Chi-square for equiv. of death rates p (R6/2 mice [4]; 30 mg/kg (p.o., BID) column): Chi-square for equiv. of death rates p=0.543
- Log-rank (Peto) Test, Chi-square for equiv. of death rates p (R6/2 mice [4]; 30 mg/kg (p.o., BID) column): 0.555
- Mean (±SEM) Survival Time (R6/2 mice [4]; 30 mg/kg (p.o., BID)): 122 (±5) days
- Medial Survival Time (R6/2 mice [4]; 30 mg/kg (p.o., BID)): 121 days
- Survival, effect in words (R6/2 mice [4]; vs R6/2 vehicle-treated animals): no survival benefit
